Values after ≈ are worked out from the molar mass of the structure shown.
How the values were obtained:
[1] = Cmax in Sprague-Dawley rat at 3 mg/kg, IG measured upto 24 hrs by LC-MS/MS analysis; type: ADME, organism-based; set-up: dose 3 mg/kg, time < 24 hrs, route ig; settings: in vivo, po
[2] = Apparent volume of distribution during terminal state in Sprague-Dawley rat at 3 mg/kg, IG measured upto 24 hrs by LC-MS/MS analysis; type: ADME, organism-based; settings: in vivo, po, read-out: Vz/F
[3] = AUClast in Sprague-Dawley rat at 3 mg/kg, IG measured upto 24 hrs by LC-MS/MS analysis; type: ADME, organism-based; set-up: time < 24 hrs, dose 3 mg/kg, route ig; settings: in vivo, po
[4] = Tmax in Sprague-Dawley rat at 3 mg/kg, IG measured upto 24 hrs by LC-MS/MS analysis; type: ADME, organism-based; settings: in vivo, po
[5] = MRTlast in Sprague-Dawley rat at 3 mg/kg, IG measured upto 24 hrs by LC-MS/MS analysis; type: ADME, organism-based; settings: in vivo, po
[6] = Half life in Sprague-Dawley rat at 3 mg/kg, IG measured upto 24 hrs by LC-MS/MS analysis; type: ADME, organism-based; settings: in vivo, po
[7] = Metabolic stability in human liver microsomes assessed as intrinsic clearance at 100 uM preincubated for 10 mins followed by NADPH addition by LC/MS analysis; type: ADME, Microsome; settings: read-out: CLH
[8] = Metabolic stability in Sprague-Dawley rat liver microsomes assessed as intrinsic clearance at 100 uM preincubated for 10 mins followed by NADPH addition by LC/MS analysis; type: ADME, Microsome; settings: read-out: CLH
[9] = Drug metabolism in rat assessed as AUC(0 to 24 hrs) for AC-279 metabolite at 100 mg/kg by UHPLC/FT-ICR-MS analysis; type: ADME, organism-based; set-up: time < 24 hr, dose 100 mg/kg; settings: in vivo
[10] = Lipophilicity, logD of the compound at pH 7.4; type: physicochemical; settings: buffer
[11] = Metabolic stability in Sprague-Dawley rat liver microsomes assessed as half life at 100 uM preincubated for 10 mins followed by NADPH addition by LC/MS analysis; type: ADME, Microsome
[12] = Drug distribution in Sprague-Dawley rat brain at 6 micromol/kg administered via gavage measured after 0.5 hr by LC-MS/MS analysis; type: ADME, tissue-based; settings: in vivo, po, dose 6 µmol/kg
[13] = Metabolic stability in human liver microsomes assessed as compound remaining at 100 uM […] followed by NADPH addition by LC/MS analysis; type: ADME, Microsome; settings: read-out: Stability
[14] = AUC(0 to 24 hrs) in monkey at 100 mg/kg by UHPLC/FT-ICR-MS analysis; type: ADME, organism-based, Macaca mulatta; set-up: time < 24 hr, dose 100 mg/kg; settings: rhesus monkey, in vivo
[15] = Drug metabolism in rat assessed as AUC(0 to 24 hrs) for AC- 527 metabolite at 100 mg/kg by UHPLC/FT-ICR-MS analysis; type: ADME, organism-based; set-up: time < 24 hr, dose 100 mg/kg; settings: in vivo
[16] = Drug metabolism in human assessed as AUC(0 to 24 hrs) for AC- 527 metabolite at 80 mg/kg/day by UHPLC/FT-ICR-MS analysis; type: ADME, organism-based; set-up: time < 24 hr, dose 80 mg/kg/day; settings: in vivo
[17] = Metabolic stability in human liver microsomes assessed as half life at 100 uM preincubated for 10 mins followed by NADPH addition by LC/MS analysis; type: ADME, Microsome
[18] = Metabolic stability in dog liver microsomes assessed as compound remaining at 100 uM […] followed by NADPH addition by LC/MS analysis; type: ADME, Canis lupus familiaris, Microsome; settings: read-out: Stability
[19] = Drug metabolism in mouse assessed as AUC(0 to 24 hrs) for AC- 527 metabolite at 100 mg/kg by UHPLC/FT-ICR-MS analysis; type: ADME, organism-based; set-up: time < 24 hr, dose 100 mg/kg; settings: in vivo
[20] = Plasma protein binding in monkey at 10 uM; type: ADME, cell-free, Macaca mulatta; settings: rhesus monkey, read-out: PPB (converted)
[21] = AUC(0 to 24 hrs) in human at 80 mg/kg/day by UHPLC/FT-ICR-MS analysis; type: ADME, organism-based; set-up: time < 24 hr, dose 80 mg/kg/day; settings: in vivo
Cytochrome P450 2D6 = Cytochrome P450 2D6 (Homo sapiens, UniProt P10635); experiment: Inhibition of CYP2D6 (unknown origin); type: ADME
Chain of Cytochrome P450 2D6 (P10635 whole entry): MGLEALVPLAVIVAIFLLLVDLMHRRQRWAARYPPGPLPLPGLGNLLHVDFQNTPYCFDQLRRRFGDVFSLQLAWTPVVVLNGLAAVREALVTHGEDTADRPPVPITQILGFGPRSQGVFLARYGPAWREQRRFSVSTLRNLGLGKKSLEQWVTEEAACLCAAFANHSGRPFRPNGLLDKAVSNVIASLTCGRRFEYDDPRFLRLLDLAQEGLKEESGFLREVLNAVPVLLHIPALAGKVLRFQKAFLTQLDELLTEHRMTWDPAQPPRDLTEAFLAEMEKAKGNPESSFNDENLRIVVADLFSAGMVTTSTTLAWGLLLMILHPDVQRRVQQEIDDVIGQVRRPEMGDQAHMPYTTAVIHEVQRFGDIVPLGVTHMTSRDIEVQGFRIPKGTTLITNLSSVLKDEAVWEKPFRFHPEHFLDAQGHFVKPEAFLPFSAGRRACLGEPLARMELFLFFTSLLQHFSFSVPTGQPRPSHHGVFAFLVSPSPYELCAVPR

[22] = Drug metabolism in human assessed as AUC(0 to 24 hrs) for AC-279 metabolite at 80 mg/kg/day by UHPLC/FT-ICR-MS analysis; type: ADME, organism-based; set-up: time < 24 hr, dose 80 mg/kg/day; settings: in vivo
[23] = AUC(0 to 24 hrs) in mouse at 100 mg/kg by UHPLC/FT-ICR-MS analysis; type: ADME, organism-based; set-up: time < 24 hr, dose 100 mg/kg; settings: in vivo
[24] = Drug metabolism in rat assessed as AUC(0 to 24 hrs) for AC- 423 metabolite at 100 mg/kg by UHPLC/FT-ICR-MS analysis; type: ADME, organism-based; set-up: time < 24 hr, dose 100 mg/kg; settings: in vivo
[25] = Drug distribution in Sprague-Dawley rat brain at 6 micromol/kg administered via gavage measured after 2 hrs by LC-MS/MS analysis; type: ADME, tissue-based; settings: in vivo, po, dose 6 µmol/kg
[26] = Drug metabolism in monkey assessed as AUC(0 to 24 hrs) for AC- 527 metabolite at 100 mg/kg by UHPLC/FT-ICR-MS analysis; type: ADME, organism-based, Macaca mulatta; set-up: time < 24 hr, dose 100 mg/kg; settings: rhesus monkey, in vivo
[27] = Drug metabolism in human assessed as AUC(0 to 24 hrs) for AC- 423 metabolite at 80 mg/kg/day by UHPLC/FT-ICR-MS analysis; type: ADME, organism-based; set-up: time < 24 hr, dose 80 mg/kg/day; settings: in vivo
Cytochrome P450 1A2 = biological target: T1, Cytochrome P450 1A2 (Homo sapiens, UniProt P05177); experiment: Inhibition of CYP1A2 (unknown origin); type: ADME
T1 sequence (P05177 whole entry): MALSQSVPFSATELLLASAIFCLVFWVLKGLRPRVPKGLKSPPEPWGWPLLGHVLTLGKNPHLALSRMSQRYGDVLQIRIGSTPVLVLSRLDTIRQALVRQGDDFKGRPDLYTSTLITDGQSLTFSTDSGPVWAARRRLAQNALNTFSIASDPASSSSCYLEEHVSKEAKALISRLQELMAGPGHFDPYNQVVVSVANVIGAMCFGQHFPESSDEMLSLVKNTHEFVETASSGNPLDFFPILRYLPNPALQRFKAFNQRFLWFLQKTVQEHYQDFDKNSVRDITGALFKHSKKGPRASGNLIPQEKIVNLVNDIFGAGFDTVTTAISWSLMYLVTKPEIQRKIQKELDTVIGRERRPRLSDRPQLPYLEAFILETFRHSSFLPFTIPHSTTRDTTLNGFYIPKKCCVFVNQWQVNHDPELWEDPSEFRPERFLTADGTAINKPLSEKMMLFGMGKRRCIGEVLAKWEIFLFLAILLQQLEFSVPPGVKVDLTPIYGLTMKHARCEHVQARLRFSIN

Cytochrome P450 2C19 = Cytochrome P450 2C19 (Homo sapiens, UniProt P33261); experiment: Inhibition of CYP2C19 (unknown origin); type: ADME
Chain of Cytochrome P450 2C19 (P33261 whole entry): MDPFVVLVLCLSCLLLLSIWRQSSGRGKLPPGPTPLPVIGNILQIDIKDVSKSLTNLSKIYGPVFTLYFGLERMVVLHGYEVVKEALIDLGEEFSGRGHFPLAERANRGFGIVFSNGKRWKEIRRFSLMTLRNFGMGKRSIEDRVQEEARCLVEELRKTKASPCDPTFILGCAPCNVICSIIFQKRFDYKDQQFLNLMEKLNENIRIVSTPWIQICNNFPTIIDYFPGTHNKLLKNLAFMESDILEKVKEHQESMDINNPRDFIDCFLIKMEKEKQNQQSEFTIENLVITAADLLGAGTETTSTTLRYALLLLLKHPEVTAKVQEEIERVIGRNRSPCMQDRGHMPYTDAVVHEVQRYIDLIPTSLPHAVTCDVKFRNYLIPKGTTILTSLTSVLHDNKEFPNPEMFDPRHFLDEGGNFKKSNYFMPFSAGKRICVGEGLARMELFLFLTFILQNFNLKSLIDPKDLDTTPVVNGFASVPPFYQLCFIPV

[28] = Metabolic stability in Sprague-Dawley rat liver microsomes assessed as compound remaining at 100 uM […] followed by NADPH addition by LC/MS analysis; type: ADME, Microsome; settings: read-out: Stability
[29] = Drug metabolism in monkey assessed as AUC(0 to 24 hrs) for AC- 423 metabolite at 100 mg/kg by UHPLC/FT-ICR-MS analysis; type: ADME, organism-based, Macaca mulatta; set-up: time < 24 hr, dose 100 mg/kg; settings: rhesus monkey, in vivo
[30] = Plasma protein binding in human at 10 uM; type: ADME, cell-free; settings: read-out: PPB (converted)
[31] = Dissociation constant, pKa of the compound; type: physicochemical
Cytochrome P450 2C9 = Cytochrome P450 2C9 (Homo sapiens, UniProt P11712); experiment: Inhibition of CYP2C9 (unknown origin); type: ADME
Chain of Cytochrome P450 2C9 (P11712 whole entry): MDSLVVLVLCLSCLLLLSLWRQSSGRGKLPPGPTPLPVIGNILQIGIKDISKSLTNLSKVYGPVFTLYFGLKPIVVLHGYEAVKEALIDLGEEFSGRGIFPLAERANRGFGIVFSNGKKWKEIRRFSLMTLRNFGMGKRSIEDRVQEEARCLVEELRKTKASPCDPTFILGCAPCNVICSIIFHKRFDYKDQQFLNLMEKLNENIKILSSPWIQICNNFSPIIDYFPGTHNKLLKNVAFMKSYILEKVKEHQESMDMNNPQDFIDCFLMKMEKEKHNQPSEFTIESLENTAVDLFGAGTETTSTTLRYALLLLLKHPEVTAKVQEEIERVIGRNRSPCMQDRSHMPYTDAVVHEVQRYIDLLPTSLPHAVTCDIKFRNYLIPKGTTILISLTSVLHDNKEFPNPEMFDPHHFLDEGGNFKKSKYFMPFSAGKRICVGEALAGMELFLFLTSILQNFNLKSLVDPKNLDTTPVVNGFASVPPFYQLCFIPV

[32] = Aqueous solubility of compound at pH 7.4; type: physicochemical
[33] = Drug metabolism in mouse assessed as AUC(0 to 24 hrs) for AC-279 metabolite at 100 mg/kg by UHPLC/FT-ICR-MS analysis; type: ADME, organism-based; set-up: time < 24 hr, dose 100 mg/kg; settings: in vivo
[34] = AUC(0 to 24 hrs) in rat at 100 mg/kg by UHPLC/FT-ICR-MS analysis; type: ADME, organism-based; set-up: time < 24 hr, dose 100 mg/kg; settings: in vivo
[35] = Drug distribution in Sprague-Dawley rat brain at 6 micromol/kg administered via gavage measured after 6 hrs by LC-MS/MS analysis; type: ADME, tissue-based; settings: in vivo, po, dose 6 µmol/kg
[36] = Plasma protein binding in rat at 10 uM; type: ADME, cell-free; settings: read-out: PPB (converted)
[37] = Drug metabolism in monkey assessed as AUC(0 to 24 hrs) for AC-279 metabolite at 100 mg/kg by UHPLC/FT-ICR-MS analysis; type: ADME, organism-based, Macaca mulatta; set-up: time < 24 hr, dose 100 mg/kg; settings: rhesus monkey, in vivo

Work on CC(C)COc1ccc(CNC(=O)N(Cc2ccc(F)cc2)C2CCN(C)CC2)cc1.O=C(O)C(O)C(O)C(=O)O yielded a Cmax [1] of 43.3 nM, a Vd/F [2] of 0.155 L/kg and an AUC(0-t) at 24 h [3] of 0.0786 µM·h. The Tmax [4] was 30 min, the MRT last at 24 h [5] was 1.82 h and the half-life [6] was 76.8 min.

Compound CC(C)COc1ccc(CNC(=O)N(Cc2ccc(F)cc2)C2CCN(C)CC2)cc1 [PIMAVANSERIN] has a CLint scaled at 100 µM [7] of 11 mL/min/kg, a CLint scaled at 100 µM [8] of 23.2 mL/min/kg and an AUC [9] of 4320 ng·h/mL. For the same compound, the logD [10] was 2.78, the half-life at 100 µM [11] was 107 min and the Ct [12] was 136 nmol/kg. The remaining at 100 µM [13] was 70.7%, the AUC(0-t) at 24 h [14] was 7730 ng·h/mL and the AUC [15] was 1976 ng·h/mL. For the same compound, the AUC [16] was 236 ng·h/mL, the half-life at 100 µM [17] was 118 min and the remaining at 100 µM [18] was 29.7%. The AUC [19] was 388 ng·h/mL, the fraction unbound at 10 µM [20] was 0.053 and the AUC at 24 h [21] was 836 ng·h/mL. It also gave an IC50 (Cytochrome P450 2D6) of over 100 µM, an AUC [22] of 527 ng·h/mL and an AUC(0-t) at 24 h [23] of 4460 ng·h/mL. It also gave an AUC [24] of 18577 ng·h/mL, a Ct [25] of 171 nmol/kg and an AUC [26] of 1289 ng·h/mL. It also gave an AUC [27] of 112 ng·h/mL, an IC50 (Cytochrome P450 1A2) of 52 µM and an IC50 (Cytochrome P450 2C19) of 49.8 µM. It also gave a remaining at 100 µM [28] of 68.5%, an AUC [29] of 2411 ng·h/mL and a fraction unbound at 10 µM [30] of 0.045. It also gave a pKa [31] of 8.44, an IC50 (Cytochrome P450 2C9) of over 100 µM and a solubility [32] of 21 µg/mL (≈ 49.1 µM). The AUC [33] was 8210 ng·h/mL, the AUC(0-t) at 24 h [34] was 3250 ng·h/mL and the Ct [35] was 36 nmol/kg. It also gave a fraction unbound at 10 µM [36] of 0.037 and an AUC [37] of 4800 ng·h/mL.

Reference: ChEMBL document CHEMBL5131502, “Improving the treatment of Parkinson's disease: Structure-based development of novel 5-HT2A receptor antagonists/inverse agonists” (Eur J Med Chem, 2022)
